These results are taken from PMC5871770, “Tlr1612 is the major repressor of cell aggregation in the light-color-dependent c-di-GMP signaling network of Thermosynechococcus vulcanus” (Scientific Reports, 2018).

Test [1] concerns the target T1, Tll0007-PilZ (FRET biosensor mCyPet-Tll0007 PilZ-mYPet) (Thermostichus vulcanus, UniProt E5RST0).
T1 construct: gene Tvtll0007; N-terminal His tag, pET28V, E. coli expressed
In words: FRET biosensor titration (F527/F475). It counts as binding. The note with it: 31 °C, pH 7.5, 100 mM NaCl, 10% glycerol, 50 nM protein; PilZ domain.

In test [2] the target is T2, full-length YcgR of Escherichia coli (Escherichia coli, UniProt P76010).
T2 construct: full length between mCyPet and mYPet (FRET reporters); N-terminal His tag, pET28V, E. coli expressed
T2 sequence (P76010 1-244): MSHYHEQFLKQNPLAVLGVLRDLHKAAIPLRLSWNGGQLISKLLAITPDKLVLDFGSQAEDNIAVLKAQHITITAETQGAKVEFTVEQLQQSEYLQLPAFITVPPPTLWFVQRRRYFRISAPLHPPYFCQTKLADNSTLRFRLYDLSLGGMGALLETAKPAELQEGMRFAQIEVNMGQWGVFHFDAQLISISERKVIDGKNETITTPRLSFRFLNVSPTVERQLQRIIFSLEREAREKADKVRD
Put plainly: FRET biosensor titration (F527/F475). The test is classed as binding. The note with it: read-out: affinity.

In test [3] the target is T3, Tll0007-PilZ (FRET biosensor mCyPet-Tll0007 PilZ-mYPet) (Thermostichus vulcanus, UniProt E5RST0, R605A).
T3 construct: gene Tvtll0007; N-terminal His tag, pET28V, E. coli expressed
In words: FRET biosensor titration (F527/F475). It counts as binding. The note with it: 31 °C, pH 7.5, 100 mM NaCl, 10% glycerol, 50 nM protein; c-di-GMP 10 nM to 1 mM; PilZ RXXXR motif mutant.

In another test the target is T4, SesA.
T4 construct: PCC 6803 from pTCH2031V; pre-irradiated with blue light
In words: EnzChek pyrophosphate assay, initial rate of diguanylate cyclase. It counts as biochemical. The note with it: 31 °C, pH 7.5, 20 mM MgCl2, 100 µM GTP, 0.2 µM protein, blue-light pre-irradiated; allosteric product inhibition at I-site (RXXD).

T1 sequence (E5RST0 entry or part of it): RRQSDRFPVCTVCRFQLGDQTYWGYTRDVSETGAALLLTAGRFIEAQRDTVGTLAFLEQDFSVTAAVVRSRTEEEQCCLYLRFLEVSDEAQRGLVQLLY
T3 sequence (E5RST0 entry or part of it R605A): as the sequence (E5RST0 entry or part of it) above, with R6A counted along it

The IC50 is the concentration that gives 50% inhibition. A high value points to lower potency. With `Nc1nc2c(ncn2[C@@H]2O[C@@H]3CO[P@](=O)(O)O[C@H]4[C@@H](O)[C@H](n5cnc6c(=O)[nH]c(N)nc65)O[C@@H]4CO[P@](=O)(O)O[C@H]3[C@H]2O)c(=O)[nH]1` [c-di-GMP, bis-(3′-5′)-cyclic diguanylic acid], the Kd was 63.9 ± 5.1 µM in test [1] and 0.42 ± 0.08 µM in test [2]. Besides, in test [3], the “no FRET increase (no binding detected)” value is given as “R605A lacked the corresponding increase in FRET efficiency upon c-di-GMP addition”. In addition, at SesA, the IC50 amounted to 1.07 ± 0.13 µM.
